Assay results published in patent publication US12037324B2, “Biarylmethyl heterocycles” (Université de Montréal, priority 2016, dated 2024).
pEC50: −log10 of the molar value.

What was measured:
Type in all cases: cell-based
AGTR1 [1] = biological target: T1, AGTR1 (Homo sapiens, UniProt P30556); assay: DiscoveRx β-arrestin2 recruitment assay (enzyme complementation, Pathunter CHO-K1 AGTR1 β-arrestin cell line); settings: DiscoveRx β-arrestin2 recruitment; for DiscoveRx β-arrestin2 Ymax (%): maximal response
T1 construct: host or cells: Pathunter CHO-K1 AGTR1 β-arrestin cell line (CHO-K1)
T1 sequence (P30556 1-359): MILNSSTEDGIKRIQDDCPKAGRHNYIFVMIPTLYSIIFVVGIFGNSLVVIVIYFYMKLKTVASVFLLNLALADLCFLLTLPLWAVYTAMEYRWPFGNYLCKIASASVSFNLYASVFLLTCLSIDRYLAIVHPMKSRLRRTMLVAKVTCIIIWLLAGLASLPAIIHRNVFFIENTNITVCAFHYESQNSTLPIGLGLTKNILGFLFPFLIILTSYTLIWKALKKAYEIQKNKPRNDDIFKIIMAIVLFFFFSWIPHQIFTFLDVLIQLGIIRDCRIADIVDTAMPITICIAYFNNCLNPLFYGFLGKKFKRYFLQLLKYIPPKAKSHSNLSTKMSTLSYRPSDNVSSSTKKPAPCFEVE
Protocol: In one aspect of the invention, signaling bias of compounds was assessed by comparing the relative activity of compounds to activate both the β-arrestin and Gq signaling pathways. In order to confirm signaling bias, compounds were studied in two different assay formats. DiscoveRx β-arrestin2 Recruitment and IP1 Assays β-arrestin2 recruitment to activated receptors can be assessed using an enzyme complementation method (Zhao, Jones et al. 2008). […] Cells (5000/well) were plated into 1536 well plates (Cellocoat plates, Greiner Bio One, Monroe, NC) 14-16 hours before each experiment in 20 μl DMEM/F12 medium (Thermo-Fisher Scientific, Carlsbad, CA) containing heat-inactivated 1% fetal bovine serum. Subsequently, the compounds of interest were added at varying concentrations to the wells in a volume of 200 nl and the cells incubated for 90 min at 37° C. The detection reagent (10 μl) was added to each well and the plates incubated at room temperature for 1 hour before measurement of chemiluminescence using an EnVision Multilabel Reader (Perkin-Elmer, Waltham, MA). The data are processed using Toolset for Runmaster QCMulti. Concentration-response curves are fitted and EC50s (agonist mode) and IC50s (antagonist mode) estimated using a 4-parameter logistic equation. Compound activities are reported as a relative percentage to the maximal effect of All in the assays.

hAT1R = biological target: T2, hAT1R (Homo sapiens, UniProt P30556); assay: BRET β-arrestin2 biosensor assay, higher receptor expression (hAT1R 5 ng/well), HEK293 cells; settings: for pEC50: High AT1R Expression
T2 sequence (P30556 1-359): T1 sequence (P30556 1-359)

AGTR1 [2] = biological target: T1, AGTR1; assay: DiscoveRx IP1 accumulation assay (HTRF), agonist mode, Pathunter CHO-K1 AGTR1 β-arrestin cell line; settings: for pEC50: read-out: IP-1 EC50
Protocol: In one aspect of the invention, signaling bias of compounds was assessed by comparing the relative activity of compounds to activate both the β-arrestin and Gq signaling pathways. In order to confirm signaling bias, compounds were studied in two different assay formats.
DiscoveRx β-arrestin2 Recruitment and IP1 Assays
Gq activation can be assessed by measuring the accumulation of inositol phosphates (e.g. IP3, IP1) that are liberated following activation of phospholipase C by Gq (Thomsen, Frazer et al. 2005). In the current invention we have utilized the DiscoveRx Pathunter CHO-K1 AGTR1 β-arrestin cell line to also measure IP1 accumulation in response to compounds. IP1 accumulation was measured in both agonist and antagonist modes. In agonist mode, cells are plated as above 14-16 hours before the experiment. The medium is then removed and compounds at varying concentrations added in a final volume of 20 μl. The cells are incubated at 37° C. for 90 min. IP1 accumulation detected using a commercial HTRF assay according to manufacturer's instructions (Cisbio, Bedford, MA). Specifically, 4 μl of D2-conjugate solution (diluted 1:20 in Cisbio HTRF assay buffer) is added to each well, followed by the addition of 4 μl of anti-IP1 cryptate diluted 1:20 in HTRF assay buffer and the plates incubated for 20 min at room temperature. 14 μl from each well is measured using an Envision multi-label reader and data processed using Toolset for Runmaster QCMulti. Concentration-response curves are fitted and EC50s (agonist mode) and IC50s (antagonist mode) estimated using a 4-parameter logistic equation. Compound activities are reported as a relative percentage to the maximal effect of All in the assays.

SMILES	pEC50 (AGTR1 [1])	DiscoveRx β-arrestin2 Ymax (%) (AGTR1 [1])	BRET β-Arrestin2 High AT1R Expression Ymax (%) (hAT1R)	pEC50 (hAT1R)	IP-1 Ymax (%) (AGTR1 [2])	pEC50 (AGTR1 [2])
CCCCOC(=O)NS(=O)(=O)c1sc(-c2ccccc2)cc1-c1ccc(Cn2c(CC)nc3c(C)cc(C)nc32)cc1 [Example 49, Butyl (3-(4-((2-ethyl-5,7-dimethyl-3H-imidazo[4,5-b]pyridin-3-yl)methyl)phenyl)-5-phenylthiophen-2-yl)sulfonylcarbamate]	7.96	47.6	78.3	7.95	4.2	7.68
CCCCOC(=O)NS(=O)(=O)c1sc(-c2ccccc2)cc1-c1ccc(Cn2c(CC)nc3c(C)cc(C)nc32)cn1 [Example 50, Butyl (3-(5-((2-ethyl-5,7-dimethyl-3H-imidazo[4,5-b]pyridin-3-yl)methyl)pyridin-2-yl)-5-phenylthiophen-2-yl)sulfonylcarbamate]	7.96	21.8	64.9	7.77	6.7	6.88
CCc1nc2c(C)cc(C)nc2n1Cc1ccc(-c2cc(N3CCC(F)(F)C3)ccc2-c2nn[nH]n2)cc1 [Example 51]	7.67	21.1	43.8	7.00	3.7	7.04
CCc1nc2c(C)cc(C)nc2n1Cc1ccc(-c2cc(-c3cccnc3)ccc2-c2nn[nH]n2)cc1 [Example 52]	8.26	5.0	23.4	7.51		< 6.00
CCc1nc2c(C)cc(C)nc2n1Cc1ccc(-c2cc(-c3ccc(F)cc3F)ccc2-c2nn[nH]n2)cc1 [Example 54]	8.23	39.5	89.7	8.24	7.0	7.98
CCc1nc2c(C)cc(C)nc2n1Cc1ccc(-c2cc(-c3cncn3C)ccc2-c2nn[nH]n2)cc1 [Example 58]	7.06	12.7	46.2	6.72	3.1	6.37
CCc1nc2c(C)cc(C)nc2n1Cc1ccc(-c2cc(-c3ccccc3)ccc2OCC(=O)O)cc1 [Example 69, 2-((4″-((2-ethyl-5,7-dimethyl-3H-imidazo[4,5-b]pyridin-3-yl)methyl)-[1,1′:3′,1″-terphenyl]-4′-yl)oxy)acetic acid]	6.42	8.5	10.3	5.82		< 4.00
CCc1nc2c(C)cc(C)nc2n1Cc1ccc(-c2cc(C3=CCCCC3)ccc2-c2nn[nH]n2)cc1 [Example 70, 3-((6′-(2H-Tetrazol-5-yl)-2″,3″,4″,5″-tetrahydro-[1,1′:3′,1″-terphenyl]-4-yl)methyl)-2-ethyl-5,7-dimethyl-3H-imidazo[4,5-b]pyridine]	7.88	58.7	94.7	8.15		< 4.30
CCc1nc2c(C)cc(C)nc2n1Cc1ccc(-c2cc(C3CCCCC3)ccc2-c2nn[nH]n2)cc1 [Example 71, 3-((5′-Cyclohexyl-2′-(2H-tetrazol-5-yl)-[1,1′-biphenyl]-4-yl)methyl)-2-ethyl-5,7-dimethyl-3H-imidazo[4,5-b]pyridine]	7.76	46.8	86.6	7.63	11.8	4.31
CCc1nc2c(C)cc(C)nc2n1Cc1ccc(-c2cc(C3=NCCC3)ccc2-c2nn[nH]n2)cc1 [Example 77, 3-((5′-(3,4-dihydro-2H-pyrrol-5-yl)-2′-(2H-tetrazol-5-yl)-[1,1′-biphenyl]-4-yl)methyl)-2-ethyl-5,7-dimethyl-3H-imidazo[4,5-b]pyridine]	7.22	21.1	77.1	7.04	7.1	6.69
CCc1nc2c(C)cc(C)nc2n1Cc1ccc(-c2cc(N3CCC(F)(F)CC3)ccc2-c2nn[nH]n2)cc1 [Example 82, 3-((5′-(4,4-difluoropiperidin-1-yl)-2′-(2H-tetrazol-5-yl)-[1,1′-biphenyl]-4-yl)methyl)-2-ethyl-5,7-dimethyl-3H-imidazo[4,5-b]pyridine]	7.02	16.8	49.6	6.85		< 4.00
CCc1nc2c(C)cc(C)nc2n1Cc1ccc(-c2cc(N3CC(C)(C)c4ccccc43)ccc2-c2nn[nH]n2)cc1 [Example 84]	7.04	35.3	88.9	7.44	6.6	6.90
CCc1nc2c(C)cc(C)nc2n1Cc1ccc(-c2cc(-n3ccc4cc(F)ccc43)ccc2-c2nn[nH]n2)cc1 [Example 85]	7.74	16.9	88.3	7.98		< 4.00
CCc1nc2c(C)cc(C)nc2n1Cc1ccc(-c2cc(N3CCC(OC)CC3)ccc2-c2nn[nH]n2)cc1 [Example 87]	7.37	16.7	29.1	6.35	7.2	7.38
CCc1nc2c(C)cc(C)nc2n1Cc1ccc(-c2cc(-n3cccc3)ccc2-c2nn[nH]n2)cc1 [Example 90]	7.26	23.2	77.7	7.56	6.0	7.40
CCc1nc2c(C)cc(C)nc2n1Cc1ccc(-c2cc(Nc3ccccc3)ccc2-c2nn[nH]n2)cc1 [Example 93]	8.10	32.6	82.8	8.12	5.4	7.67
CCc1nc2c(C)cc(C)nc2n1Cc1ccc(-c2cc(N(C)c3ccccc3)ccc2-c2nn[nH]n2)cc1 [Example 94]	7.88	35.9	76.8	7.68	9.0	7.49
CCc1nc2c(C)cc(C)nc2n1Cc1ccc(-c2cc(N3CCc4ccccc43)ccc2-c2nn[nH]n2)cc1 [Example 96]	7.90	33.0	77.6	7.89	5.3	7.54
CCc1nc2c(C)cc(C)nc2n1Cc1ccc(-c2cc(N3CCC(C)CC3)ccc2-c2nn[nH]n2)cc1 [Example 97, 2-ethyl-5,7-dimethyl-3-((5′-(4-methylpiperidin-1-yl)-2′-(2H-tetrazol-5-yl)-[1,1′-biphenyl]-4-yl)methyl)-3H-imidazo[4,5-b]pyridine]	7.82	34.3	79.7	7.51	7.3	7.33
